Test system: polyglutamine-induced caspase-3 activation, cell assay
Assay: polyglutamine-triggered caspase-3 activation inhibitors, cell-based (AID 1583)

| SMILES | EC50 [µM] |
| --- | --- |
| C[C@H]1O[C@@H](O[C@H]2[C@@H](O)C[C@H](O[C@H]3[C@@H](O)C[C@H](O[C@H]4CC[C@]5(C)C6CC[C@]7(C)[C@@H](C8=CC(=O)OC8)CC[C@]7(O)C6CC[C@@H]5C4)O[C@@H]3C)O[C@@H]2C)C[C@H](O)[C@@H]1O (some centres undefined) | 0.189 |
| C[C@]12CCC3C(CC[C@]4(O)C[C@@H](O)CC[C@]34C=O)[C@@]1(O)CCC2C1=CC(=O)OC1 (some centres undefined) | 1.68 |
| C[C@@]1(C(=O)O)CC[C@]2(C)CC[C@]3(C)C4=CC=C5C=C(O)C(=O)C=C5[C@]4(C)CC[C@@]3(C)[C@@H]2C1 | 4.63 |
| CCCCC(CC)CN=C(N)NC(N)=NCCCCCCN=C(N)NC(N)=NCC(CC)CCCC (centres undefined) | 1.67 |
| CC(=O)O[C@H]1C[C@H](O[C@H]2[C@@H](O)C[C@H](O[C@H]3[C@@H](O)C[C@H](O[C@H]4CC[C@@]5(C)C(CCC6C5C[C@@H](O)[C@]5(C)[C@@H](C7=CC(=O)OC7)CC[C@]65O)C4)O[C@@H]3C)O[C@@H]2C)O[C@H](C)[C@H]1O[C@@H]1O[C@H](CO)[C@@H](O)[C@H](O)[C@H]1O (some centres undefined) | 7.47 |
| CO[C@H]1[C@H](O)[C@H](O[C@H]2CC[C@]3(C)C4CC[C@]5(C)C(C6=CC(=O)OC6)CC[C@]5(O)C4CC[C@@H]3C2)O[C@@H](C)[C@@H]1O (some centres undefined) | 0.0786 |
| CC(=O)[O][Hg][c]1ccccc1 | 1.74 |
| O[N+]1=CC=CCC1=S.On1ccccc1=S.[Zn] | 0.855 |
| CO[C@H]1[C@H](O)[C@@H](O[C@H]2CC[C@]3(C=O)C4CC[C@]5(C)[C@@H](C6=CC(=O)OC6)CC[C@]5(O)C4CC[C@@H]3C2)O[C@@H](C)[C@@H]1O (some centres undefined) | 0.0932 |
